From patent publication US9370547B2, “Compositions and methods for treating ischemia” (UNIVERSITY OF KENTUCKY RESEARCH FOUNDATION, priority 2014, dated 2016)

Experiments:
WT mice after MCAo = settings: mouse, in vivo
[1] = cited from earlier work
[2] = test system: claudin-5 expression in mouse brain endothelial cells; experiment: Claudin-5 western blot and immunocytochemistry in brain endothelial cells after OGD; type: cell-based
Protocol: FIG. 11A includes a claudin-5 western blot of brain endothelial cells after OGD that were treated as labeled.
FIG. 11B includes plot showing the quantification of claudin-5 expression normalized to Ponceau S total protein stain for the samples show in FIG. 11A.
FIG. 11C includes images showing claudin-5 immunocytochemistry of WT mouse brain endothelial cells either just prior to (control) or 24 hours after OGD treated as labeled. Scale bar is 5 μm.

Row | Substance | animal vital signs upon administration (WT mice after MCAo) | tolerability (signs of illness such as fur ruffling, weight differences) (WT mice after MCAo) | serum half-life ([1]; for some subjects) [h] | tissue distribution ([1]; in vivo) | safety of intravenous administration ([1]; intravenous) | claudin-5 levels compared with ATN-161 and normoxic control [2]
1 | Ac-PHSCN-NH2 [ATN-161] | did not alter animal vital signs | well tolerated | 3 to 5 | high tissue distribution | can be safely administered intravenously | –
2 | Ac-PhScN—NH2 | – | – | – | – | – | more effective than ATN-161
